A short description of data set [1]: Measurement of logP values by HPLC on reversed phase columns (EEC directive 79/831 Annex V.A8). It is filed as physicochemical. Particulars: for LogP: method [a]: pH 2,7, 0.1% formic acid in water / acetonitrile, linear gradient 10% to 95% acetonitrile. The protocol:
Measurement of logP values was performed according EEC directive 79/831 Annex V.A8 by HPLC (High Performance Liquid Chromatography) on reversed phase columns with the following methods:
^[a] Measurement of LC-MS was done at pH 2,7 with 0.1% formic acid in water and with acetonitrile (contains 0.1% formic acid) as eluent with a linear gradient from 10% acetonitrile to 95% acetonitrile.
Calibration was done with not branched alkan2-ones (with 3 to 16 carbon atoms) with known logP-values (measurement of logP values using retention times with linear interpolation between successive alkanones). lambda-maX-values were determined using UV-spectra from 200 nm to 400 nm and the peak values of the chromatographic signals.

The test system of another data set is Phytophthora infestans. It is filed as in vivo. The conditions noted are these: tomato plants, preventive spray, 100 ppm of active ingredient, evaluated 7 days after inoculation.
The subject of a further data set is Plasmopara viticola. In words: Plasmopara test (grapevines) / preventive. The data set is classed as in vivo. Particulars: grapevine plants, preventive spray, 10 ppm of active ingredient, evaluated 6 days after inoculation. The protocol:
Plasmopara Test (Grapevines)/Preventive
Solvent: 24.5 parts by weight of acetone • 24.5 parts by weight of dimethylacetamide
Emulsifier: 1 part by weight of alkylaryl polyglycol ether
To produce a suitable preparation of active compound, 1 part by weight of active compound is mixed with the stated amounts of solvent and emulsifier, and the concentrate is diluted with water to the desired concentration.
To test for preventive activity, young plants are sprayed with the preparation of active compound at the stated rate of application. After the spray coating has dried on, the plants are inoculated with an aqueous spore suspension of Plasmopara viticola and then remain for 1 day in an incubation cabinet at approximately 20° C. and a relative atmospheric humidity of 100%. The plant is subsequently placed for 4 days in a greenhouse at approximately 21° C. and a relative atmospheric humidity of approximately 90%.
The plants are then misted and placed for 1 day in an incubation cabinet.
The test is evaluated 6 days after the inoculation. 0% means an efficacy which corresponds to that of the untreated control, while an efficacy of 100% means that no disease is observed.

For the compound `CC1=NOC(C)(C(=O)Nc2cccc(CON=C(c3ccccc3)c3nnnn3C)n2)C1` (stereo not drawn) [Example 1], the LogP in data set [1] is 2.84^[a]. The same measure, in the same setting: next, `Cn1nnnc1C(=NOCc1cccc(NC(=O)C2CC(c3ccccc3)=NO2)n1)c1ccccc1` (stereo not drawn) [Example 2]: 3.51^[a].

In the case of `Cn1nnnc1/C(=N\OCc1cccc(NC(=O)C2CC(c3ccccc3F)=NO2)n1)c1ccccc1` (stereo not drawn) [Example 3, 3-(2-fluorophenyl)-N-{6-[({[(Z)-(1-methyl-1H-tetrazol-5-yl)(phenyl)methylene]amino}oxy)methyl]pyridin-2-yl}-4,5-dihydro-1,2-oxazole-5-carboxamide], the chromatographic logP in data set [1] (reversed phase HPLC columns, pH 2.7, HCOOH method, reported in preparation example) turned out to be 3.5. For the same compound, the Eff. % is 93% with Phytophthora infestans and 74% in the data set with Plasmopara viticola. With `Cc1nnnn1C(=NOCc1cccc(NC(=O)C2CC(c3ccccc3F)=NO2)n1)c1ccccc1` (stereo not drawn) [Example 4], the LogP in data set [1] is 3.59^[a]. For the same compound, the Eff. % with Phytophthora infestans was found to be 95%. The matching figures for `Cn1nnnc1C(=NOCc1cccc(NC(=O)C2(C)CC(c3ccccc3)=NO2)n1)c1ccccc1` (stereo not drawn) [Example 5]: 3.87^[a] and 89%. Regarding `Cc1nnnn1C(=NOCc1cccc(NC(=O)C2(C)CC(c3ccccc3)=NO2)n1)c1ccccc1` (stereo not drawn) [Example 6], the LogP in data set [1] was 3.94^[a]. The Eff. % in the data set on Phytophthora infestans is reported as 95%; with Plasmopara viticola, 85%. Take `CC1=NOC(C)(C(=O)Nc2nc(CON=C(c3ccccc3)n3nnnc3C)cs2)C1` (stereo not drawn) [Example 7]: the LogP in data set [1] is 2.73^[a]. In the case of `Cc1nnnn1C(=NOCc1csc(NC(=O)C2CC(c3ccccc3)=NO2)n1)c1ccccc1` (stereo not drawn) [Example 8], the LogP in data set [1] was 3.35^[a]. In the data set on Phytophthora infestans, this compound gave an Eff. % of 95%. The matching figures for `CC1=NOC(C)(C(=O)Nc2nc(CON=C(c3ccccc3)c3nnnn3C)cs2)C1` (stereo not drawn) [Example 9]: 2.69^[a] and 85%. The matching figures for `Cn1nnnc1C(=NOCc1csc(NC(=O)C2CC(c3ccccc3)=NO2)n1)c1ccccc1` (stereo not drawn) [Example 10]: 3.31^[a] and 93%.

As to `Cn1nnnc1C(=NOCc1csc(NC(=O)C2CC(c3ccccc3F)=NO2)n1)c1ccccc1` (stereo not drawn) [Example 11], the LogP in data set [1] is 3.29^[a]. Also, the Eff. % with Phytophthora infestans is given as 95%. Turning to `Cc1nnnn1C(=NOCc1csc(NC(=O)C2CC(c3ccccc3F)=NO2)n1)c1ccccc1` (stereo not drawn) [Example 12], the LogP in data set [1] is 3.31^[a]. Further, the Eff. % with Phytophthora infestans worked out at 95%. `Cn1nnnc1C(=NOCc1csc(NC(=O)C2(C)CC(c3ccccc3)=NO2)n1)c1ccccc1` (stereo not drawn) [Example 13]: in data set [1], the LogP was 3.6^[a]. Also, the Eff. % in the data set with Phytophthora infestans stood at 100%; with Plasmopara viticola, 97%. Take `Cc1nnnn1C(=NOCc1csc(NC(=O)C2(C)CC(c3ccccc3)=NO2)n1)c1ccccc1` (stereo not drawn) [Example 14]: the LogP in data set [1] is 3.64^[a]. The Eff. % amounted to 95% in the data set on Phytophthora infestans and 92% with Plasmopara viticola. For the compound `Cn1nnnc1C(=NOCc1csc(NC(=O)C2CC(c3ccccc3Cl)=NO2)n1)c1ccccc1` (stereo not drawn) [Example 15], the LogP in data set [1] was 3.48^[a]. Besides, the Eff. % in the data set on Phytophthora infestans was 90%. The matching figures for `CC1=NOC(C(=O)Nc2nc(CON=C(c3ccccc3)c3nnnn3C)cs2)C1` (stereo not drawn) [Example 16]: 2.35^[a] and 93%. The matching figures for `Cn1nnnc1C(=NOCc1csc(NC(=O)C2CC(c3cc(F)ccc3F)=NO2)n1)c1ccccc1` (stereo not drawn) [Example 17]: 3.39^[a] and 95%.

For `CC(C)C1=NOC(C(=O)Nc2nc(CON=C(c3ccccc3)c3nnnn3C)cs2)C1` (stereo not drawn) [Example 18], in data set [1], the LogP was 2.92^[a]. The same compound returned an Eff. % in the data set with Phytophthora infestans of 93%. In the case of `CCC1=NOC(C(=O)Nc2nc(CON=C(c3ccccc3)c3nnnn3C)cs2)C1` (stereo not drawn) [Example 19], the LogP in data set [1] was 2.64^[a]. The same compound had an Eff. % in the data set with Phytophthora infestans of 85%.

For `Cn1nnnc1C(=NOCc1csc(NC(=O)C2CC(c3c(F)cccc3Cl)=NO2)n1)c1ccccc1` (stereo not drawn) [Example 20], the LogP in data set [1] is 3.44^[a]. For the same compound, in the data set with Phytophthora infestans, the Eff. % is on record as 93%. The matching figures for `COc1ccc(C2=NOC(C(=O)Nc3nc(CON=C(c4ccccc4)c4nnnn4C)cs3)C2)cc1` (stereo not drawn) [Example 21]: 3.25^[a] and 85%. The matching figures for `Cc1nnnn1C(=NOCc1csc(NC(=O)C2CC(c3c(F)cccc3Cl)=NO2)n1)c1ccccc1` (stereo not drawn) [Example 22]: 3.48^[a] and 90%. In the case of `COc1ccc(C2=NOC(C(=O)Nc3nc(CON=C(c4ccccc4)n4nnnc4C)cs3)C2)cc1` (stereo not drawn) [Example 23], the LogP in data set [1] was 3.29^[a].

For the compound `Cc1nnnn1C(=NOCc1csc(NC(=O)C2CC(c3cc(F)ccc3F)=NO2)n1)c1ccccc1` (stereo not drawn) [Example 24], the LogP in data set [1] is 3.46^[a]. The same compound had an Eff. % in the data set on Phytophthora infestans of 93%. The matching figures for `Cc1nnnn1C(=NOCc1csc(NC(=O)C2CC(C(C)C)=NO2)n1)c1ccccc1` (stereo not drawn) [Example 25]: 2.96^[a] and 85%. As to `CCC1=NOC(C(=O)Nc2nc(CON=C(c3ccccc3)n3nnnc3C)cs2)C1` (stereo not drawn) [Example 26], the LogP in data set [1] was 2.68^[a]. Same read-out and setting: with `CC1=NOC(C(=O)Nc2nc(CON=C(c3ccccc3)n3nnnc3C)cs2)C1` (stereo not drawn) [Example 27] the figure was 2.42^[a].

As for `Cc1nnnn1C(=NOCc1csc(NC(=O)C2CC(c3ccccc3Cl)=NO2)n1)c1ccccc1` (stereo not drawn) [Example 28], the LogP in data set [1] was 3.55^[a]. The same compound yielded an Eff. % with Phytophthora infestans of 90%.

Usually chromatographic logP stands for a lipophilicity value derived from retention on a column. A low value points to a more hydrophilic compound.

Values taken from patent US20140206726A1 (priority 2011, published 2014).
